# Entries after “also recorded” stand apart in the source; their conditions may differ.
# Experiments:
# [1] = system: L. crispatus; test: Growth of L. crispatus in AU supplemented with ATP; type: cell-based, Lactobacillus crispatus; conditions: AU supplemented with different concentrations of ATP, FIG. 8E
# Description: As depicted in FIG. 8D, the amount of ATP remaining when L. crispatus was grown in AU supplemented with 0.1 mM ATP for 24 hours was 22.89±0.98 uM, which was less than half the control (49.2±6.3 uM) (P≤0.0005). To further investigate ATP reduction, L. crispatus was cultured in AU supplemented with different concentrations of ATP (FIG. 8E), as well as in AU supplemented with 50% E. coli supernatant (FIG. 8G), and 25% G. vaginalis supernatant (FIGS. 8H and 8J), as potential natural sources of ATP. The growth of L. crispatus was increased by increasing ATP concentration (FIG. 8E), including that emanating from the E. coli and G. vaginalis supernatants (FIGS. 8H and 8J). […] In FIGS. 8A-8L, statistical significance was determined using Tukey's test, p≤0.05, and is designated with three asterisks (p less than 0.05*, 0.01**, 0.001***).
# For investigation the subtherapeutic concentration of ciprofloxacin, the L. crispatus was grown in deMan, Rogosa, Sharpe media (MRS, Difco, MD). Growth curves for these bacteria were generated using a plate reader (Eon Biotek, VT) at OD600 and 37° C. to determine exponential phase.
# [2] = system: E. coli; test: Growth of E. coli supplemented with ATP; type: cell-based, Escherichia coli; conditions: FIG. 8F
# [3] = system: primary myofibroblast cells; test: Myofibroblast populated collagen gel contraction assay; type: cell-based
# Description: Bacterial supernatants from E. coli, L. crispatus, and L. gasseri strain KE-1 (ATCC Designation No. PTA-125162) were added to a myofibroblast populated collagen matrix, both from pure culture and mixtures with DMEM with 2% FBS. In addition, GABA, ATP and LPS were included as controls. The collagen contraction assay using primary myofibroblast cells seeded on top of a collagen matrix was tested against the bacterial products. […] As depicted in FIG. 12C, pure ATP caused contraction of myofibroblasts in the first hour (30.37%) and continued for 24 hours (68.56%). […] Based on previous literature, it is believed that the contraction maybe caused by E. coli was due to LPS.
# Bladder epithelial cells (5637-ATCC HTB-9) were maintained in RPMI 1640 (Roswell-Park Memorial Institute media—Thermo Fisher Scientific, MA) supplemented with 10% fetal bovine serum (FBS) (Thermo Fisher Scientific, Ma.) and 2 mM L-glutamine (Thermo Fisher Scientific, MA.) at 37° C. and 5% CO2. The media was changed every 48 hours or more regularly if the cells were confluent (90%-100%), after washing by 1×PBS and trypsinization by 0.25% Trypsin-EDTA (1×) (Gibco), with the ratio of 1 to 10. Primary myofibroblast cells were extracted from the palmar fascia during surgery from normal tissue. Primary cultures were maintained in DMEM with 10% fetal bovine serum (FBS; Life Technologies, Carlsbad, CA, USA), 1% L-glutamine (Life Technologies) and 1% antibiotic-antimycotic solution (Life Technologies) at 37° C. in 5% CO2. All primary cell lines were used up to a maximum of four passages, after which they were discarded.
# [4] = system: 5637 cells; test: Fluorescent microscopy of calcium influx of 5637 cells (FLUO-4); type: cell-based, human
# Description: Supernatants were collected from cultures grown overnight (24 hours) at 37° C. after reaching stationary phase. Cultures were pelleted by centrifugation at 5000 rpm (Eppendorf Centrifuge 5804 R) for 15 minutes. The supernatant was pH adjusted to 7.0 with 0.1 Molar HCL or NaOH, filter sterilized with 0.22 um sterile syringe filter, and aliquoted and stored at −20 C° until use. In the case of E. coli and E. faecalis, overnight cultures were diluted 1:100 with fresh artificial urine, returned to incubation at 37° C. and sampled at T=1, 2, 3, 4, 5 and 24 hours for testing. […]
# The influx of calcium was measured using the FLUO-4 DIRECT™ Calcium Assay kit (Invitrogen™, CA). […] Cells were counted by using the INVITROGEN COUNTESS AUTOMATED CELL COUNTER (Thermo Fisher Scientific, MA.) per the manufacturers' instructions. […] The effect of treatments was assessed using a NIKON EPIFLUORESCENCE TS2R scope at 10× magnification at 494 nm for excitation and 516 nm for emission for 60 seconds. The image intensity was calculated using ImageJ and is indicative of Ca^2+ influx into the urothelial cell's cytoplasmic space from either the extracellular environment or intracellular Ca^2+ stores (referred to as Ca^2+ influx).
# [5] = system: E. coli; test: ATP release by E. coli at subtherapeutic ciprofloxacin concentrations; type: cell-based, Escherichia coli; conditions: concentrations below the MIC of 0.25, 0.125, 0.0625 ug/mL, FIG. 9B
# Description: Further testing was completed on E. coli and its release of ATP. Testing was conducted to determine the minimum inhibitory concentration (MIC) and subtherapeutic concentrations of exposure to the antibiotic ciprofloxacin (Cip).
# The release of ATP from bacterial supernatants was measured using an ATP colorimetric/fluorometric assay kit (Biovision Inc, CA). Samples and reagents were prepared according to the protocol provided. The OD numbers were taken by the BIOTEK EON microplate reader. A luminescent assay kit BACTITER-GLO™ Microbial Cell Viability Assay, G8230) was used to quantify the amount of extracellular ATP released by the bacteria into the supernatant and released by the cells into the cell media. The SYNERGY™ H4 Hybrid Multi-Mode Microplate Reader was used to quantify the amount of extracellular ATP.
structure (smiles),measurement,setting,value
"Nc1ncnc2c1ncn2[C@@H]1O[C@H](COP(=O)(O)OP(=O)(O)OP(=O)(O)O)[C@@H](O)[C@H]1O [ATP, adenosine triphosphate]",growth of L. crispatus,[1],increased
same,growth of E. coli,[2],somewhat inhibitory effect
same,contraction of myofibroblasts,"[3]; after 24 hours, sample alone, FIGS. 12A-12C",68.56%
same,contraction of myofibroblasts,"[3]; after five hours of exposure, FIG. 12E",57.5%
same,contraction of myofibroblasts,"[3]; in the first hour, FIG. 12C",30.37%
"NCCCC(=O)O [GABA, γ-aminobutyric acid]",contraction of myofibroblasts,"[3]; GABA alone, FIG. 12C",did not cause contraction
same,effect on contraction caused by E. coli,"[3]; GABA with E. coli, FIG. 12D",inhibited contraction; also recorded: could inhibit contraction
same,effect on stimulation of calcium influx caused by ATP,"[4]; AU containing 1 uM GABA mixed with ATP in AU, FIG. 10A",reduce the stimulation of calcium influx
same,effect on stimulation of calcium influx caused by E. coli supernatant,"[4]; GABA mixed with E. coli supernatant, FIG. 10B",inhibit the stimulation of calcium influx
O=C(O)c1cn(C2CC2)c2cc(N3CCNCC3)c(F)cc2c1=O [ciprofloxacin],ATP released by E. coli,[5],up to 0.0261±0.003 uM

# Reference: patent US20240424036A1, “COMPOSITIONS AND METHODS FOR PREVENTING OR TREATING INCONTINENCE, OVERACTIVE BLADDER, OR MENSTRUAL CRAMPING” (priority 2018, published 2024)
